ChEMBL document CHEMBL1149576, “Convergent synthesis and in vivo inhibitory effect on fat accumulation of (-)-ternatin, a highly N-methylated cyclic peptide” (2007)
Activity calls are given as the source filed them. The calls are words filed in the database; no cut-off is given here.

Test system: 3T3-L1
Assay: Inhibition of fat accumulation in mouse 3T3L1 adipocytes
Type: functional, cell-based

Compound: CC[C@H](C)[C@H]1NC(=O)[C@@H]([C@H](O)C(C)C)NC(=O)[C@@H](C)N(C)C(=O)[C@H](C)N(C)C(=O)[C@H](CC(C)C)NC(=O)[C@H](CC(C)C)N(C)C(=O)[C@H](C)N(C)C1=O
- Activity: Active
